Data as given in paper PMC10313368 (The Journal of Clinical Investigation, 2023).
“And” between values parts separate entries of the source, which are not always exact repeats. Equal values may be shown once.

How the values were obtained:
[1] = test system: HIF-regulated vasoactive mediators; test: mRNA expression of HIF-regulated vasoactive mediators in retina of STZ-induced diabetic mice (qPCR); format: in vivo, mouse; conditions: STZ mice, replicates; for Angptl4 mRNA / Vegfa mRNA: S Figure 3B; for Angpt2 mRNA / Ptprb mRNA: S Figure 3C
Method: (§1) Reverse transcription and quantitative real-time PCR. Total RNA was isolated from cultured cells or retinas with PureLinkTM RNA Mini Kit (Invitrogen #12183025), and cDNA was prepared with MuLV Reverse Transcriptase (Applied Biosystems). Quantitative real-time PCR was performed with Power SYBR Green PCR Master Mix (Applied Biosystems) and MyiQ Real-Time PCR Detection System (Bio-Rad). Normalization was done using cyclophilin A for mouse tissue and human cell lines. Primers are listed in Supplemental Table 2. […]
STZ-induced diabetes mouse model. 8-to-10 week-old male mice received an IP injection of STZ at 40 mg/kg of body weight in 0.1M of citrate buffer (pH 4.5) for 5 consecutive days. Normal chow and 10% sucrose water were provided during this period. 10% sucrose was discontinued and replaced with regular water on experimental day 6. Blood glucose was measured on experimental day 28 after 16 hours fasting and mice with blood glucose level > 250 mg/dL were considered […]
Intraperitoneal (IP) injections. […]

HUVECs = test: qPCR of VEGF, ANGPTL4, ANGPT2, PTPRB, SERPINE1 mRNA in hypoxic HUVECs; format: cell-based, human; conditions: for Angptl4 mRNA / Vegfa mRNA: HUVEC 16HRS, Figure 8D; for Angptl4 mRNA / Vegfa mRNA / Angpt2 mRNA / Ptprb mRNA / Serpine1 mRNA: replicates; for Angpt2 mRNA / Ptprb mRNA / Serpine1 mRNA: HUVEC, Figure 8E
Method: MIO-M1, HUVECs, and ARPE19 cells were cultured in DMEM with 10% (vol/vol) FBS (Quality Biological) and 1% penicillin/streptomycin (Cellgro). A hypoxic chamber (Coy Laboratory Product Inc.; Two Glove Model) with 5% CO2, 94% N2, and 1% O2 gas concentration at 37°C was used to culture hypoxic cells. The control cells were cultured in an incubator maintained at 37°C, with 21% O2 and 5% CO2. […] Aflibercept was obtained from the Johns Hopkins University Pharmacy. […]
as §1

HIF-2α = target: T1, HIF-2α (Mus musculus, UniProt P97481); test: Western blot of HIF-2α protein accumulation in retina of OIR mice (P14); format: in vivo
T1 construct: from tissue; host or cells: retina of C57BL/6 OIR pups
Method: Immunoblot assays. Cells, neurosensory retina, and D120 retinal organoid lysates were subjected to 4–15% gradient SDS/PAGE (Invitrogen). Immunoblot (Western blot or WB) assays were performed as previously described (1).
Reverse transcription and quantitative real-time PCR. Total RNA was isolated from cultured cells or retinas with PureLinkTM RNA Mini Kit (Invitrogen #12183025), and cDNA was prepared with MuLV Reverse Transcriptase (Applied Biosystems). Quantitative real-time PCR was performed with Power SYBR Green PCR Master Mix (Applied Biosystems) and MyiQ Real-Time PCR Detection System (Bio-Rad). Normalization was done using cyclophilin A for mouse tissue and human cell lines. Primers are listed in Supplemental Table 2.
Angiogenesis array. […]
cDNA was prepared with QuantiTect® Reverse Transcription Kit (Qiagen, Cat# 205311). […]
4444554). […] The data were analyzed by using HPRT1 as endogenous […]
HUVEC cells, Euclidean distance was used to quantify the difference in qPCR screening. The Euclidean distance was calculated using “dist” function from R’s default stat library that measures the distance between 2 vectors (i.e., total qPCR expression values in control and treatment). […]
STZ-induced diabetes mouse model. […] Blood glucose was measured on experimental day 28 after 16 hours fasting and mice with blood glucose level > 250 mg/dL were considered […]

[2] = HUVECs, hypoxia 16 hours, 32-134D 10 μM

T1 sequence (P97481 whole entry): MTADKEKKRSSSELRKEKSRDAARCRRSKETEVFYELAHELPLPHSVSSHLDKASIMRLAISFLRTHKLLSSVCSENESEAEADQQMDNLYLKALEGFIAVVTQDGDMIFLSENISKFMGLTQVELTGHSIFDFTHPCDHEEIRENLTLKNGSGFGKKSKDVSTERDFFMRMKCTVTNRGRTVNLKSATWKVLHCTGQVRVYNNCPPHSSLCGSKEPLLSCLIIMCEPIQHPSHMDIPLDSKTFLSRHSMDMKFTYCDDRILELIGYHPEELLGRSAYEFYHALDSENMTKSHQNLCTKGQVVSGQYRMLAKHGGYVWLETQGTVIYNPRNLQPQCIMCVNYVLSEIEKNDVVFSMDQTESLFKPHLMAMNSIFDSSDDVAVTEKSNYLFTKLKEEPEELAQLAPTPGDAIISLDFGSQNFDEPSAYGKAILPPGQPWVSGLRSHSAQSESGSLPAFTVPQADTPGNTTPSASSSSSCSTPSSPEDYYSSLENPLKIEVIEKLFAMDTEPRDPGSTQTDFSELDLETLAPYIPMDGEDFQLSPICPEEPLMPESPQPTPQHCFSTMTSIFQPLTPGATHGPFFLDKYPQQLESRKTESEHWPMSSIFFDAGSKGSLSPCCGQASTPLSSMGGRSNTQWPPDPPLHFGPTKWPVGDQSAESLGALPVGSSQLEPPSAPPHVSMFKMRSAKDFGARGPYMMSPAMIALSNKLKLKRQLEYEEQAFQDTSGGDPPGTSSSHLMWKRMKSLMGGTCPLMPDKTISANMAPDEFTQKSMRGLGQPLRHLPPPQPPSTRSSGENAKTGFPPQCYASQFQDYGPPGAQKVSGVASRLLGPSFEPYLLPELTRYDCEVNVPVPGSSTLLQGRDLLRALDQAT

## Brc1ccc2c(-c3csc(-c4c[nH]c5c(Br)cccc45)n3)c[nH]c2c1 [32-134D, 4-(6-bromo-1H-indol-3-yl)-2-(7-bromo-1H-indol-3-yl)thiazole]
[1]; 40mg/kg i.p., 40 mg/kg
  Angptl4 mRNA: 0.6634 and 0.674 and 0.6653
  Vegfa mRNA: 1.885 and 1.498 and 1.761
  Angpt2 mRNA: 0.559 and 0.5248 and 0.5704
  Ptprb mRNA: 0.7022 and 0.6022 and 0.6973
[1]; 80mg/kg i.p., 80 mg/kg
  Angptl4 mRNA: 0.5186 and 0.5762 and 0.6276
  Vegfa mRNA: 1.453 and 1.442 and 1.52
  Angpt2 mRNA: 0.5647 and 0.5575 and 0.5047
  Ptprb mRNA: 0.8502 and 0.8904 and 0.75
HUVECs; 1% O2+32-134D 1μM
  Angptl4 mRNA: 23.6548 and 19.8329 and 22.215
  Vegfa mRNA: 3.163 and 3.148 and 2.936
  Angpt2 mRNA: 1.029 and 1.541 and 1.067
  Ptprb mRNA: 1.641 and 1.627 and 1.638
  Serpine1 mRNA: 2.465 and 2.4817 and 2.486
HUVECs; 1% O2+32-134D 10μM
  Angptl4 mRNA: 13.1074 and 12.3148 and 11.0174
  Vegfa mRNA: 2.892 and 2.5719 and 2.682
  Angpt2 mRNA: 1.092 and 1.046 and 0.8708
  Ptprb mRNA: 1.169 and 1.1917 and 1.0627
  Serpine1 mRNA: 2.072 and 2.145 and 2.576
HUVECs; [2]
  hypoxia-increased ANGPT2 mRNA (in words): inhibited
  hypoxia-increased PTPRB mRNA (in words): inhibited
HIF-2α; single i.p. injection 20 mg/kg, P14
  HIF-2α protein accumulation in OIR mice: reduction
HIF-2α; single intraocular injection 14 ng at P12, P14
  accumulation of HIF-2α in OIR mice: effectively reduced
